Test [1] relates to sub-genomic HCV NS3-NS5B replicon of genotype 1a in Huh-7 cells. In words: Replicon Luciferase Cell Based Assay, genotype 1a. Also noted: species or system HCV genotype 1a. The conditions noted are these: Hepatitis C virus, Huh-7, 48 hours. As for the experimental part: (§1) A 10 mM stock solution in DMSO of each test compound was further diluted in DMSO in the first row of a 384-well, V-bottom microplate, to give 100 times the top concentration of the required dilution series. Dilutions of compound were prepared in 1:3 serial dilutions from the first row onwards robotically. A robot was also used to transfer 0.5 μL volumes from each dilution well into wells of white 384-well assay plates (Nunc #164610). Control wells received 0.5 μL of DMSO alone. Plates were made in duplicate for measuring HCV replication and cytotoxicity in the replicon cell lines.
(§2) Suspensions were prepared from cultures of Huh-7 cells stably transfected with sub-genomic HCV NS3—NS5B replicons of either genotype 1b (the ET subline described by Pietschmann, T., Lohmann, V., Kaul, A., Krieger, N., Rinck, G., Rutter, G., Strand, D. & Bartenschlager, R., Journal of Virology, 2002, 76, 4008-4021) or genotype 1a linked to a firefly luciferase reporter gene. Monolayers nearing confluency were stripped from growth flasks with versene-trypsin solution and the cells re-suspended in assay medium comprising DMEM (Invitrogen #11965-092) supplemented with 5% v/v foetal calf serum, 1% v/v non-essential amino acids solution, 100 units/ml penicillin, 100 μg/ml streptomycin and 2 mM GlutaMAX-1. 50 μL of suspension containing 5,000 cells of either genotype 1b or genotype 1a luciferase replicon were added to all wells, except medium controls, of the assay plate with a Multidrop Combi (Thermo Scientific Corporation) and the plate incubated for 48 hours at 37° C. in a 5% CO2 atmosphere. A solution of Steady-Glo cytolytic buffer/luciferase substrate (Promega #E2550) was prepared according to the manufacturer's instructions, and 20 μL were added to each well with a Multidrop Combi. To measure cytotoxicity, a solution of CellTiter-Glo Luminescent Cell Viability Assay reagent (Promega #G7573) was prepared according to the manufacturer's instructions, and 20 ul were added to each well with a Multidrop Combi. The plates were then read for luminescence on an Envision Multilabel Reader (Perkin Elmer)
(§3) Potency: The luminescence values from all compound-free wells containing cells were averaged to obtain a positive control value. The mean luminescence value from the compound-free wells that had received no cells was used to provide the negative (background) control value. After the subtraction of the mean background from all values, the readings from wells at each compound concentration were expressed as a percentage of the positive control signal. The quantifiable and specific reduction of luciferase signal in the presence of a drug is a direct measure of replicon inhibition. The BioAssay application and XC50 module were used to plot the curve of percentage inhibition against compound concentration and derive the 50% inhibitory concentration (IC50) for the compound.

For test [2], the system named is sub-genomic HCV NS3-NS5B replicon of genotype 1b (ET subline) in Huh-7 cells. In words: Replicon Luciferase Cell Based Assay, genotype 1b. Also noted: species or system HCV genotype 1b. The conditions noted are these: Hepatitis C virus, Huh-7, 48 h, read-out: Genotype 1b (IC50 μM). As for the experimental part: as §1, §2, §3

The structures appear in SMILES notation.

On to `COc1ccc2c(O[C@@H]3C[C@H]4C(=O)N[C@]5(C(=O)NS(=O)(=O)C6CC6)C[C@H]5/C=C\CCCCC[C@H](NC(=O)N5CCC(CO)CC5)C(=O)N4C3)cc(-c3nc(C(C)C)cs3)nc2c1C` [Example 25, (2R,6S,13aS,14aR,16aS)-N-(cyclopropylsulfonyl)-6-({[4-(hydroxymethyl)-1-piperidinyl]carbonyl}amino)-2-{[8-methyl-2-[4-(1-methylethyl)-1,3-thiazol-2-yl]-7-(methyloxy)-4-quinolinyl]oxy}-5,16-dioxo-1,2,3,6,7,8,9,10,11,13a,14,15,16,16a-tetradecahydrocyclopropa[e]pyrrolo[1,2-a][1,4]diazacyclopentadecine-14a(5H)-carboxamide], for which the IC50 in test [1] and in test [2] was less than 0.01 µM each time.

For `COc1ccc2c(O[C@@H]3C[C@H]4C(=O)N[C@]5(C(=O)NS(=O)(=O)C6CC6)C[C@H]5/C=C\CCCCC[C@H](NC(=O)N(C)C(C)(C)C)C(=O)N4C3)cc(-c3nc(C4CC4)cs3)nc2c1C` [Example 9, (2R,6S,13aS,14aR,16aS)-N-(cyclopropylsulfonyl)-2-{[2-(4-cyclopropyl-1,3-thiazol-2-yl)-8-methyl-7-(methyloxy)-4-quinolinyl]oxy}-6-({[(1,1-dimethylethyl)(methyl)amino]carbonyl}amino)-5,16-dioxo-1,2,3,6,7,8,9,10,11,13a,14,15,16,16a-tetradecahydrocyclopropa[e]pyrrolo[1,2-a][1,4]diazacyclopentadecine-14a(5H)-carboxamide], the IC50 in test [1] and in test [2] was less than 0.01 µM in each case.

As for `CCN(C)C(=O)N[C@H]1CCCCC/C=C\[C@@H]2C[C@@]2(C(=O)NS(=O)(=O)C2CC2)NC(=O)[C@@H]2C[C@@H](Oc3cc(-c4nc(C(C)C)cs4)nc4c(C)c(OC)ccc34)CN2C1=O` [Example 17], the IC50 in test [1] and in test [2] was less than 0.01 µM in each case.

On to `COc1ccc2c(O[C@@H]3C[C@H]4C(=O)N[C@]5(C(=O)NS(=O)(=O)C6CC6)C[C@H]5/C=C\CCCCC[C@H](NC(=O)N5CC(F)(F)C5)C(=O)N4C3)cc(-c3nc(C(C)C)cs3)nc2c1C` [Example 35, (2R,6S,13aS,14aR,16aS,Z)-N-(cyclopropylsulfonyl)-6-(3,3-difluoroazetidine-1-carboxamido)-2-(2-(4-isopropylthiazol-2-yl)-7-methoxy-8-methylquinolin-4-yloxy)-5,16-dioxo-1,2,3,5,6,7,8,9,10,11,13a,14,14a,15,16,16a-hexadecahydrocyclopropa[e]pyrrolo[1,2-a][1,4]diazacyclopentadecine-14a-carboxamide], for which the IC50 in test [1] and in test [2] was less than 0.01 µM each time.

As to `COc1ccc2c(O[C@@H]3C[C@H]4C(=O)N[C@]5(C(=O)NS(=O)(=O)C6CC6)C[C@H]5/C=C\CCCCC[C@H](NC(=O)N5CCC(CC(N)=O)CC5)C(=O)N4C3)cc(-c3nc(C(C)C)cs3)nc2c1C` [Example 23, (2R,6S,13aS,14aR,16aS)-6-({[4-(2-amino-2-oxoethyl)-1-piperidinyl]carbonyl}amino)-N-(cyclopropylsulfonyl)2-{[8-methyl-2-[4-(1-methylethyl)-1,3-thiazol-2-yl]-7-(methyloxy)-4-quinolinyl]oxy}-5,16-dioxo-1,2,3,6,7,8,9,10,11,13a,14,15,16,16a-tetradecahydrocyclopropa[e]pyrrolo[1,2-a][1,4]diazacyclopentadecine-14a(5H)-carboxamide], the IC50 in test [1] and in test [2] was less than 0.01 µM in each case.

Take `CCN(CC)C(=O)N[C@H]1CCCCC/C=C\[C@@H]2C[C@@]2(C(=O)NS(=O)(=O)C2CC2)NC(=O)[C@@H]2C[C@@H](Oc3cc(-c4nc(C(C)C)cs4)nc4c(C)c(OC)ccc34)CN2C1=O` [Example 2, (2R,6S,13aS,14aR,16aS)-N-(cyclopropylsulfonyl)-6-{[(diethylamino)carbonyl]amino}-2-{[8-methyl-2-[4-(1-methylethyl)-1,3-thiazol-2-yl]-7-(methyloxy)-4-quinolinyl]oxy}-5,16-dioxo-1,2,3,6,7,8,9,10,11,13a,14,15,16,16a-tetradecahydrocyclopropa[e]pyrrolo[1,2-a][1,4]diazacyclopentadecine-14a(5H)-carboxamide]: the IC50 in test [1] and in test [2] was less than 0.01 µM throughout.

As to `COc1ccc2c(O[C@@H]3C[C@H]4C(=O)N[C@]5(C(=O)NS(=O)(=O)C6CC6)C[C@H]5/C=C\CCCCC[C@H](NC(=O)N5CCC(C)(C)C5)C(=O)N4C3)cc(-c3nc(C(C)C)cs3)nc2c1C` [Example 36, (2R,6S,13aS,14aR,16aS,Z)-N-(cyclopropylsulfonyl)-6-(3,3-dimethylpyrrolidine-1-carboxamido)-2-(2-(4-isopropylthiazol-2-yl)-7-methoxy-8-methylquinolin-4-yloxy)-5,16-dioxo-1,2,3,5,6,7,8,9,10,11,13a,14,14a,15,16,16a-hexadecahydrocyclopropa[e]pyrrolo[1,2-a][1,4]diazacyclopentadecine-14a-carboxamide], the IC50 in test [1] and in test [2] was less than 0.01 µM throughout.

For `COc1ccc2c(O[C@@H]3C[C@H]4C(=O)N[C@]5(C(=O)NS(=O)(=O)C6CC6)C[C@H]5/C=C\CCCCC[C@H](NC(=O)N5CCC(C)(C)C5)C(=O)N4C3)cc(-c3nc(C4CC4)cs3)nc2c1C` [Example 34, (2R,6S,13a-5,1-aR,16aS,Z)-N-(cyclopropylsulfonyl)-2-(2-(4-cyclopropylthiazol-2-yl)-7-methoxy-8-methylquinolin-4-yloxy)-6-(3,3-dimethylpyrrolidine-1-carboxamido)-5,16-dioxo-1,2,3,5,6,7,8,9,10,11,13a,14,14a,15,16,16a-hexadecahydrocyclopropa[e]pyrrolo[1,2-a][1,4]diazacyclopentadecine-14a-carboxamide], the IC50 in test [1] and in test [2] was less than 0.01 µM in each case.

Consider `COc1ccc2c(O[C@@H]3C[C@H]4C(=O)N[C@]5(C(=O)NS(=O)(=O)C6CC6)C[C@H]5/C=C\CCCCC[C@H](NC(=O)N(C)C)C(=O)N4C3)cc(-c3nc(C4CC4)cs3)nc2c1C` [Example 6, (2R,6S,13aS,14aR,16aS)-N-(cyclopropylsulfonyl)-2-{[2-(4-cyclopropyl-1,3-thiazol-2-yl)-8-methyl-7-(methyloxy)-4-quinolinyl]oxy}-6-{[(dimethylamino)carbonyl]amino}-5,16-dioxo-1,2,3,6,7,8,9,10,11,13a,14,15,16,16a-tetradecahydrocyclopropa[e]pyrrolo[1,2-a][1,4]diazacyclopentadecine-14a(5H)-carboxamide], for which the IC50 in test [1] and in test [2] was less than 0.01 µM each time.

For `CCCN(CC1CC1)C(=O)N[C@H]1CCCCC/C=C\[C@@H]2C[C@@]2(C(=O)NS(=O)(=O)C2CC2)NC(=O)[C@@H]2C[C@@H](Oc3cc(-c4nc(C(C)C)cs4)nc4c(C)c(OC)ccc34)CN2C1=O` [Example 19, (2R,6S,13aS,14aR,16aS)-6-({[(cyclopropylmethyl)(propyl)amino]carbonyl}amino)-N-(cyclopropylsulfonyl)-2-{[8-methyl-2-[4-(1-methylethyl)-1,3-thiazol-2-yl]-7-(methyloxy)-4-quinolinyl]oxy}-5,16-dioxo-1,2,3,6,7,8,9,10,11,13a,14,15,16,16a-tetradecahydrocyclopropa[e]pyrrolo[1,2-a][1,4]diazacyclopentadecine-14a(5H)-carboxamide], the IC50 in test [1] and in test [2] was less than 0.01 µM throughout.

Consider `COc1ccc2c(O[C@@H]3C[C@H]4C(=O)N[C@]5(C(=O)NS(=O)(=O)C6CC6)C[C@H]5/C=C\CCCCC[C@H](NC(=O)N5CCCCC5)C(=O)N4C3)cc(-c3nc(C4CC4)cs3)nc2c1C` [Example 31, (2R,6S,13aS,14aR,16aS,Z)-N-(cyclopropylsulfonyl)-2-(2-(4-cyclopropylthiazol-2-yl)-7-methoxy-8-methylquinolin-4-yloxy)-5,16-dioxo-6-(piperidine-1-carboxamido)-1,2,3,5,6,7,8,9,10,11,13a,14,14a,15,16,16a-hexadecahydrocyclopropa[e]pyrrolo[1,2-a][1,4]diazacyclopentadecine-14a-carboxamide], for which the IC50 in test [1] and in test [2] was less than 0.01 µM in each case.

Values taken from patent US20100196321A1, “COMPOUNDS” (GLAXOSMITHKLINE LLC, priority 2009, published 2010).
